Patent US20210163552A1, “PEPTIDE FOR INDUCING REGENERATION OF TISSUE, AND USE THEREOF” (SHIONOGI & CO., LTD., priority 2017, published 2021)
Where no end group is shown, it is not given here.

What was measured:
[1] = Stability of peptides in plasma (Example 6); format: in vitro ADME; conditions: rat plasma on ice, assay concentration 5 μg/mL; for stability in rat plasma compared to 2-44 / stability in rat plasma, Peptide-3 and Peptide-6 compared with each other: 30 and 60 minutes (FIG. 3)
Description: A 5 mL tube previously charged with 60 μL of a 10% EDTA-2K was charged with 3 mL of whole blood collected from Crl: CD (SD) rats, and the contents were allowed to stand at room temperature for 30 minutes, and then centrifuged at 4° C. and at 3,000 rpm (1600×g) for 10 minutes. The supernatant was collected to be used as a blank plasma. The plasma obtained was stored on ice and only used on the day of the stability test.
Each of the peptide at position 2 to position 44 of human HMGB1 (2-44), the modified peptide prepared in Example 1 (Peptide-3), and the modified peptide prepared in Example 4 (Peptide-6) was prepared into a solution at 375 μg/mL with distilled water from a stock solution in which each peptide was dissolved in a 0.1% aqueous TFA solution at 1 mg/mL. Eight microliters of the solution was added to 592 μL of the blank plasma to prepare a sample for the stability test (assay concentration: 5 μg/mL). The sample for stability test was allowed to stand on ice, and 50 μL was collected immediately after the addition, and 30 and 60 minutes after the addition. To 50 μL of the collected sample were added 250 μL of 270 mmol/L citric acid solution/130 mmol/L EDTA-2K aqueous solution (4:1, v/v), and 50 μL of a 0.1% aqueous TFA solution, and mixed. To the mixture was added 350 μL of methanol and mixed, and further 100 μL of acetonitrile was added thereto and mixed, and the mixture was once frozen with dry ice. After 5 to 60 minutes, the frozen sample was thawed at room temperature, and the supernatant obtained by centrifugation at 4° C. and at 14,000×g for 3 minutes was collected in an amount of 400 μL, dried and solidified with a centrifugal concentrator (Spin Dryer Light VC-36R, manufactured by TAITEC CORPORATION), and dissolved in 200 μL of a 1% TFA/2% ACN Buffer, and filtrated with a filter (0.22 μm) to obtain samples for the measurement.
The samples for the measurement were introduced into high-performance liquid chromatograph-single quadrupolar mass spectrometer to detect the monitor ions peculiar to each of the peptides. From separately prepared samples of which concentrations were known, a calibration curve was drawn in a concentration range of from 0.1 to 10 μg/mL, and an inverse regression was obtained from peak areas of chromatograms obtained by measurements of each sample to obtain a peptide concentration in the samples. For the peptide concentration at each time point, a remaining rate (%) which was calculated by defining one immediately after the addition as 100 was plotted against the time after the addition (FIG. 3).

[2] = system: murine bone marrow-derived stromal cell line ST2; assay: Measurements of cell-migration activity (Example 2); format: cell-based; design: key: five levels of scores (−, ±, +, ++, +++); five levels of scores (−, ±, +, ++, +++); five levels of scores (−, ±, +, ++, +++); five levels of scores (−, ±, +, ++, +++); five levels of scores (−, ±, +, ++, +++); conditions: ST2 cells, peptide at 10 μM, cultured overnight, score from photographed images
Description: Cells of murine bone marrow-derived stromal cell line ST2 (RCB0224, RIKEN BioResource Research Center) were removed from a dish using TrypLE Express (Thermo Fisher Scientific), and collected by centrifugation at 25° C. and 1,500 rpm for 5 minutes. The cell pellets were prepared into a concentration of 7×10^5 cells/mL with RPMI 1640/10% FBS/1% PenStrep (Gibco), and seeded at 70 μL/insert well on a 24-well plate set with a culture insert (Nippon Genetics Co., Ltd.). After 24 hours, the culture insert was taken out, and the cells were washed once with RPMI 1640. Each of the peptide samples (a peptide of position 2 to position 44 of human HMGB1 (2-44), and the five kinds of modified peptides Peptide-1 to -5 prepared in Example 1), each prepared at 10 μM with an assay medium (RPMI 1640/0.1% FBS) was added in an amount of 550 μL, and the cells were further cultured overnight. As a negative control (NC), only the assay medium was added. After the culture, the cells were fixed, stained with DiffQuik, and photographed. The degree of cell migration of each group from the photographed images was evaluated with five levels of scores (−, ±, +, ++, +++). In addition, each of the peptide samples was subjected to three test runs under the same conditions.

| Sequence | peptide concentration in the stability test sample (quantifiable lower limit) ([1]; 30 minutes after the addition) [µg/mL] | stability in rat plasma compared to 2-44 [1] | stability in rat plasma, Peptide-3 and Peptide-6 compared with each other [1] | degree of cell migration, 1st Run [2] | degree of cell migration, 2nd Run [2] | degree of cell migration, 3rd Run [2] |
| --- | --- | --- | --- | --- | --- | --- |
| GKGDPKKPRGKMSSYAFFVQTCREEHKKKHPDASVNFSEFSKK [Peptide 2-44, GKGDPKKPR GKMSSYAFFVQTCREEHKKKHPDASVNFSEFSKK, reference compound] | ≤ 0.5 | – | – | – | – | – |
| GKGDPKKPRGKMSSYAFFVQTCREEHKKKHPDASVNFSEFSPP [Peptide-6, GKGDPKKPR GKMSSYAFFVQTCREEHKKKHPDASVNFSEFSPP] | – | stable as compared to 2-44 | of the same level | – | – | – |
| MGKGDPKKPRGKMSSYAFFVQTCREEHKKKHPDASVNFSEFSKA (MGKGDPKKPRGKMSSYAFFVQTCREEHKKKHPDASVNFSEFSKA) [Peptide-4] | – | – | – | ++ | + | +++ |
| MGKGDPKKPRGKMSSYAFFVQTCREEHKKKHPDASVNFSEFSKE (MGKGDPKKPRGKMSSYAFFVQTCREEHKKKHPDASVNFSEFSKE) [Peptide-5] | – | – | – | ++ | ++ | ++ |
| MGKGDPKKPRGKMSSYAFFVQTCREEHKKKHPDASVNFSEFSKP (MGKGDPKKPRGKMSSYAFFVQTCREEHKKKHPDASVNFSEFSKP) [Peptide-1] | – | – | – | +++ | + | +++ |
| MGKGDPKKPRGKMSSYAFFVQTCREEHKKKHPDASVNFSEFSPK (MGKGDPKKPRGKMSSYAFFVQTCREEHKKKHPDASVNFSEFSPK) [Peptide-2] | – | – | – | +++ | ++ | +++ |
| MGKGDPKKPRGKMSSYAFFVQTCREEHKKKHPDASVNFSEFSPP [Peptide-3, MGKGDPKKPRGKMSSYAFFVQTCREEHKKKHPDASVNFSEFSPP] | – | stable as compared to 2-44 | of the same level | – | – | – |
